# Measurements as given in PubChem BioAssay (NCI).
# “And” between values parts separate entries of the source, which are not always exact repeats. Identical values can stand only once.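 Values below derive from 48-hour exposures of cells grown in 96-well plates, with endpoints linearly interpolated between the two concentrations bracketing the appropriate inhibition level. At the GI50, growth is halved. At the TGI there is no net growth.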
# Key:
# Experiment in all cases: inhibition of tumour cell growth, NCI panel, 48 h
# [1] = tested on: SF-268 CNS
# [2] = tested on: U251 CNS
# [3] = tested on: MDA-MB-435
# [4] = tested on: HCT-116 colon
# [5] = tested on: COLO 205 colon
# [6] = tested on: MDA-N
# [7] = tested on: CCRF-CEM leukemia
# [8] = tested on: ACHN renal
# [9] = tested on: HS 578T breast
# [10] = tested on: A498 renal
# [11] = tested on: DU-145 prostate
# [12] = tested on: SF-539 CNS
# [13] = tested on: HCC-2998 colon
# [14] = tested on: SNB-75 CNS
# [15] = tested on: SK-OV-3 ovarian
# [16] = tested on: HOP-92 NSCLC
SMILES,TGI [1] [µM],TGI [2] [µM],TGI [3] [µM],TGI [4],TGI [5] [µM],TGI [6] [µM],TGI [7] [µM],TGI [8] [µM],TGI [9] [µM],TGI [10] [µM],TGI [11] [µM],TGI [12] [µM],TGI [13] [µM],TGI [14] [µM],TGI [15] [µM],TGI [16] [µM],GI50 [4] [µM],GI50 [11] [µM]
Cc1ccc2c(=O)c(-c3nnc(N)s3)c[nH]c2n1,> 100,> 100,> 100,> 100 µM,> 100,> 100,> 100,> 100,> 100,> 100,> 100,,,,,,,
Cc1c[nH]c(C(=O)O)c1-c1ccc2c(-c3ccccc3)nc3ccccc3n12,> 100,> 100,78.1,> 100 µM,> 100,48.4,> 100,> 100,67.3,28.3,> 100,49.3,56.9,56.4,> 100,> 100,,
CC(=O)Nc1cc2c(cc1O)CC[C@@H]1[C@@H]2CC[C@]2(C)[C@@H](O)CC[C@@H]12,68.8,> 100,50.8,> 100 µM,62.2,52.1,> 100,> 100,> 100,70.7,> 100,> 100,82.4,,> 100,> 100,39.8,> 100
COc1ccc(-n2c(C)nc3ccc(NC4OCC(O)C(O)C4O)cc3c2=O)cc1 (stereo not drawn),> 100,> 100,> 100,40.4 µM and 39.3 µM,> 100,> 100,,> 100,> 100,> 100,> 100,,> 100,> 100,,,,
COC(=O)C(Cc1ccccc1I)C1=CCC2(CC1)OCCO2 (stereo not drawn),> 100,> 100,44.8,,63,67.4,81,> 100,77.5,> 100,> 100,> 100,> 100,57.4,> 100,97.2,,
CN(C)CCNC(=O)c1cccc2nc3cccc(F)c3nc12,19.4,6.61,2.92,4.56 µM,1.89,3.13,10.4,3.56,9.27,5.14,12.9,7.7,4.31,13.2,,3.63,,
C=C1CC(Cn2cc(C)c(=O)[nH]c2=O)(c2ccc(-c3ccccc3)cc2)OC1=O (stereo not drawn),5.62,16.1,3.74,2.03 µM,2.89,2.75,,6.65,> 21.2,16.9,6.42,8.38,5.23,21.8,17.7,3.75,,
O=C1c2ccccc2C(=O)N1CCCCCCNOCCCN1C(=O)c2ccccc2C1=O,> 100,> 100,74.7,> 100 µM,> 100,> 100,> 100,> 100,> 100,93.8,> 100,,> 100,> 100,> 100,> 100,,
Cc1ccc2[nH]c3[nH]c(=O)[nH]c(=O)c3c2c1,> 100,,> 100,> 100 µM,> 100,> 100,> 100,> 100,> 100,> 100,> 100,> 100,,> 100,> 100,> 100,,
CCN(CC)C(=S)SC1CCOP(=O)(N(CCCl)CCCl)N1C (stereo not drawn),98.6,> 52.5,> 100,> 48.5 µM,,> 100,43.1,> 67.5,> 100,> 100,> 100,56.6,> 68.7,> 100,> 100,43.9,,
Cc1cc2c(cc1C)[n+](=O)c(N1CCN(c3ccc([N+](=O)[O-])cc3)CC1)c(C#N)n2[O-],> 100,80.9,> 100,> 100 µM,> 100,> 100,> 100,50.8,> 100,> 100,> 100,,> 100,21.7,30.9,56.7,,
CCn1c(=O)ccc2ccc(N(CCO)CCO)nc21,> 100,> 100,> 100,> 100 µM,> 100,> 100,> 100,> 100,> 100,> 100,> 100,,> 100,> 100,> 100,,,
Cc1c(CCCl)c(N=[N+]=[N-])n2c(nc3ccccc32)c1C#N,5.67,6.02,2.73,1.55 µM,2.66,3.12,0.987,2.85,2.43,3.85,6.3,3.5,,2.87,5.07,2.61,,
N=C(N)n1[nH]c2c(c1=O)CCCC2,> 100,> 100,> 100,> 100 µM,> 100,> 100,> 100,> 100,> 100,> 100,> 100,> 100,> 100,99.7,> 100,,,
O=[N+]([O-])c1cccc2nc3ccccc3c(NCCCN3CCOCC3)c12,0.744,0.14,0.0242,< 0.0298 µM,0.0303,0.0149,0.13,0.0506,> 100,0.0377,0.0298,0.138,,0.114,0.267,0.0434,,
CC(C)N=C(NC#N)NS(=O)(=O)c1cnccc1Nc1ccc(Cl)cc1,> 100,> 100,> 100,> 100 µM,> 100,> 100,> 100,> 100,> 100,> 100,> 100,,> 100,> 100,> 100,,,
